Biological target: T1, plasminogen (Homo sapiens, UniProt P00747)
T1 construct: Glu-Pg, uPA, tPA, fibrinogen, and chromogenic substrate for Pn were purchased from Molecular Innovations (Novi, Mich.); purchased Molecular Innovations (Novi, Mich.)
Assay: LC-MS/MS identification of sites of MG adduction on plasminogen in vitro (Tables 1 and 12)
Settings: 500 μM MG, 24 hr
Description: 10 μg Pg was incubated with MG (50-500 μM) in tris-buffered saline (TBS) for 24 hours at 37° C. Following modification, sample volumes were increased to 150 μL and placed in 5 kDa spin filters to reduce volume and remove excess MG from solution.
MG-modified (500 μM) and unmodified Pg control (same incubation conditions without MG) were added to 250 μL amount of rehydration buffer (6M urea, 2M thiourea, 2% CHAPS, 100 mM DTT, 0.5% 3-10 ampholytes) and 5 μL of 3-10 ampholytes (Bio-Rad). Sample rehydrated with a 13 cm 4-7 pH isoelectric focusing strip (GE Healthcare) overnight. Following rehydration, strips were placed in a Bio-Rad PROTEAN IEF Cell focusing instrument. Strips were first focused for 1 hour at 500 V, and then run at a maximum of 8,000V until the strips have reached a final total of 45,000 V/hrs at which point gels are held at 500V until removed. Focused strips were removed, reduced with DTT, cysteines carbamidomethylated with iodoacetamide, and run on a 4-20% gradient Criterion gel for 55 minutes at 200V. Gels were stained for stained according to manufacturer instructions with Imperial Blue Protein (ThermoScientific, Rockford, Ill.) and destained immediately with water. Gel bands were excised and trypsin digested.
Coomassie stained gel-bands were excised and washed in ddH2O for 15 min. H2O was removed and bands were incubated in 50/50 acetonitrile (ACN):ddH2O for 15 min. ACN:ddH2O was removed and bands were incubated with ACN for 5 min. ACN was removed and gels were incubated with 100 mM ammonium bicarbonate (AMBIC). An equal volume of ACN was added to make 1:1 solution and was incubated for 15 min. The ACN/AMBIC solution was removed and remaining gel bands were dried by speed-vacuum. 10 mM dithiothreitol (DTT) was added to each band and incubated at 56° C. for 45 min. DTT was removed and sample brought to room temperature (RT). Iodoacetamide (55 mM) was added to each sample and incubated at RT for 30 min in dark. Iodoacetamide was removed and 100 mM AMBIC was added and bands were incubated for 5 min. An equal volume of ACN was added to make a 1:1 solution and incubated for 15 min. The ACN/AMBIC solution was removed and bands were dried by speed-vacuum. Bands were digested with trypsin (400 ng/band) in 50 mM AMBIC and incubated on ice for 45 min. Tryptic solution was removed and 50 mM AMBIC was added to each band and incubated overnight at 37° C. to complete digestion. Digests were acidified using 10% trifluoroacetic acid (TFA). Supernatant was saved. Band was covered with TFA:ACN (0.1%:60%) and sonicated at 20° C. water bath for 30 min. Supernatant was combined with previous fraction. Sampled were speed vacuumed to a final volume of 10 μL prior to LC-MS/MS analysis on an LTQ Orbitrap Velos mass spectrometer as described below.
LC-MS/MS analysis of in-gel trypsin digested-proteins (Shevchenko et al., 1996) was carried out using a LTQ Orbitrap Velos mass spectrometer (Thermo Fisher Scientific, San Jose, Calif.) equipped with an Advion nanomate ESI source (Advion, Ithaca, N.Y.), following ZipTip (Millipore, Billerica, Mass.) C18 sample clean-up according to the manufacturer's instructions. Peptides were eluted from a C18 precolumn (100-μm id×2 cm, Thermo Fisher Scientific) onto an analytical column (75-μm ID×10 cm, C18, Thermo Fisher Scientific) using a 5-20% gradient of solvent B (acetonitrile, 0.1% formic acid) over 65 minutes, followed by a 20-35% gradient of solvent B over 25 minutes, all at a flow rate of 400 nl/min. Solvent A consisted of water and 0.1% formic acid. Data dependent scanning was performed by the Xcalibur v 2.1.0 software (Andon et al., 2002) using a survey mass scan at 60,000 resolution in the Orbitrap analyzer scanning m/z 350-1600, followed by collision-induced dissociation (CID) tandem mass spectrometry (MS/MS) of the fourteen most intense ions in the linear ion trap analyzer. […]

T1 sequence (P00747 20-810 limits assumed): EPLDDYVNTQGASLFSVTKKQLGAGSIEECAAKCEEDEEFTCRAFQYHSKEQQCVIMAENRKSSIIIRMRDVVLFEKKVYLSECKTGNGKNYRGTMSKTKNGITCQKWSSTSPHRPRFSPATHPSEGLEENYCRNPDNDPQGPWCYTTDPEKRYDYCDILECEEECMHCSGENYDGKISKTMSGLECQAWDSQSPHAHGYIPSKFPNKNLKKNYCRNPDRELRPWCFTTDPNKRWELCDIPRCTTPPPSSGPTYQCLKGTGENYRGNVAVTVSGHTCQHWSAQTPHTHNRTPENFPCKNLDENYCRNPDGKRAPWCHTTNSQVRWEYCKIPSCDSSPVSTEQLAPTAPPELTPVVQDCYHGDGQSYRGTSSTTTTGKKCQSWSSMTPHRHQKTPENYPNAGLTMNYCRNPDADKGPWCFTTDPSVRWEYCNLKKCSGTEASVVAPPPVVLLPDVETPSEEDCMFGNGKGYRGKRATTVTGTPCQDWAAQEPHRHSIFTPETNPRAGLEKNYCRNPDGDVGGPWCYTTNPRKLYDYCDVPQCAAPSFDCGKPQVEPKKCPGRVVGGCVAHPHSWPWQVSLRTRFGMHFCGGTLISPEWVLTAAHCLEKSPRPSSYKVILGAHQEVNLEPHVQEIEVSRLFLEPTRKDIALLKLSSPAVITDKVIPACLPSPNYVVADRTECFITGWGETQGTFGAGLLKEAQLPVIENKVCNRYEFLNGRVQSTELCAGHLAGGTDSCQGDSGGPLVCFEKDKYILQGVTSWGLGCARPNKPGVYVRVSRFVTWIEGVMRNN

CC(=O)C=O [MG, Methylglyoxal]
Spectra Observed (site 312, MG-DH, RAPWC(+57)HTTNSQVR): 10 | Spectra Observed (site 312, MG-HI, RAPWC(+57)HTTNSQVR): 8 | Spectra Observed (site 324, MG-DH, RAPWC(+57)HTTNSQVRWEYC(+57)K): 4 | Spectra Observed (site 324, MG-HI, APWC(+57)HTTN SQVRWEYC(+57)K): 3 | Spectra Observed (site 324, MG-HI, RAPWC(+57)HTTNSQVRWEYC(+57)K): 7 | Spectra Observed (site 389, MG-DH, C(+57)QSWSSMTPHRHQK): 2 | Spectra Observed (site 389, MG-DH, KC(+57)QSWSSMTPHRHQK): 1 | Spectra Observed (site 389, MG-HI, C(+57)QSWSSMTPHRHQK): 4 | Spectra Observed (site 389, MG-HI, KC(+57)QSWSSMTPHRHQK): 1 | Spectra Observed (site 474, MG-DH, GKRATTVTGTPC(+57)QDWAAQEPHR): 1 | Spectra Observed (site 474, MG-DH, RATTVTGTPC(+57)QDWAAQEPHR): 3 | Spectra Observed (site 474, MG-HI, GKRATTVTGTPC(+57)QDWAAQEPHR): 4 | Spectra Observed (site 474, MG-HI, RATTVTGTPC(+57)QDWAAQEPHR): 3 | Spectra Observed (site 493, MG-DH, ATTVTGTPC(+57)QDWAAQEPHRHSIFTPETNPR): 4 | Spectra Observed (site 493, MG-DH, RATTVTGPC(+57)QDWAAQEPHRHSIFTPETNPR): 3 | Spectra Observed (site 493, MG-HI, ATTVTGTPC(+57)QDWAAQEPHRHSIFTPETNPR): 6 | Spectra Observed (site 493, MG-HI, RATTVTGPC(+57)QDWAAQEPHRHSIFTPETNPR): 4 | Spectra Observed (site 504, MG-DH, HSIFTPETNPRAGLEK): 9 | Spectra Observed (site 504, MG-HI, HSIFTPETNPRAGLEK): 16 | Spectra Observed (site 530, MG-DH, NPDGDVGGPWC(+57)YTTNPRK): 9 | Spectra Observed (site 530, MG-HI, NPDGDVGGPWC(+57)YTTNPRK): 12 | Spectra Observed (site 530, MG-HI, NYC(+57)RNPDGDVGGPWC(+57)YTTNPRK): 3 | Spectra Observed (site 561, MG-DH, C(+57)PGRVVGGC(+57)VAHPHSWPWQVSLR): 5 | Spectra Observed (site 561, MG-DH, CPGRVVGGCVAHPHSWPWQVSLR): 1 | Spectra Observed (site 561, MG-DH, KC(+57)PGRVVGGC(+57)VAHPHSWPWQVSLR): 10 | Spectra Observed (site 561, MG-DH, KCPGRVVGGCVAHPHSWPWQVSLR): 1 | Spectra Observed (site 561, MG-HI, C(+57)PGRVVGGC(+57)VAHPHSWPWQVSLR): 5 | Spectra Observed (site 561, MG-HI, KC(+57)PGRVVGGC(+57)VAHPHSWPWQVSLR): 12 | Spectra Observed (site 582, MG-DH, TRFGMHFC(+57)GGTLISPEWVLTAAHC(+57)LEK): 1 | Spectra Observed (site 582, MG-HI, TRFGM(+16)HFC(+57)GGTLISPEWVLTAAHC(+57)LEK): 1 | Spectra Observed (site 582, MG-HI, TRFGMHFC(+57)GGTLISPEWVLTAAHC(+57)LEK): 1 | Spectra Observed (site 644, MG-HI, LFLEPTRK): 2 | Spectra Observed (site 712, MG-DH, VC(+57)NRYEFLNGR): 5 | Spectra Observed (site 712, MG-HI, VC(+57)NRYEFLNGR): 4 | Spectra Observed (site 767, MG-DH, DKYILQGVTSWGLGC(+57)ARPNKPGVYVR): 8 | Spectra Observed (site 767, MG-DH, YILQGVTSWGLGC(+57)ARPNKPGVYVR): 6 | Spectra Observed (site 767, MG-HI, DKYILQGVTSWGLGC(+57)ARPNKPGVYVR): 11 | Spectra Observed (site 767, MG-HI, YILQGVTSWGLGC(+57)ARPNKPGVYVR): 6 | Spectra Observed (site 779, MG-DH, VSRFVTWIEGVM(+16)R): 5 | Spectra Observed (site 779, MG-DH, VSRFVTWIEGVMR): 2 | Spectra Observed (site 779, MG-HI, VSRFVTWIEGVM(+16)R): 9 | Spectra Observed (site 779, MG-HI, VSRFVTWIEGVMR): 4 | Spectra Observed (site 789, MG-DH, FVTWIEGVM(+16)RNN): 6 | Spectra Observed (site 789, MG-DH, FVTWIEGVMRNN): 13 | Spectra Observed (site 789, MG-HI, FVTWIEGVM(+16)RNN): 10 | Spectra Observed (site 789, MG-HI, FVTWIEGVMRNN): 14 | Spectra Observed (sites 115/117, MG-DH, MG-HI, WSSTSPHRPRFSPATHPSEGLEENYC(+57)R): 2 | Spectra Observed (sites 115/117, MG-DH, WSSTSPHRPRFSPATHPSEGLEENYC(+57)R): 1 | Spectra Observed (sites 115/117, MG-HI, WSSTSPHRPRFSPATHPSEGLEENYC(+57)R): 3 | Spectra Observed (sites 220/223, MG-DH, NPDRELRPWC(+57)FTTDPNKR): 3 | Spectra Observed (sites 220/223, MG-HI, MG-DH, NPDRELRPWC(+57)FTTDPNKR): 9 | Spectra Observed (sites 220/223, MG-HI, NPDRELRPWC(+57)FTTDPNKR): 8 | Spectra Observed (sites 312/324, MG-DH, MG-HI, RAPWC(+57)HTTNSQVRWEYC(+57)K): 7 | Spectra Observed (sites 312/324, MG-DH, RAPWC(+57)HTTNSQVRWEYC(+57)K): 3 | Spectra Observed (sites 312/324, MG-HI, RAPWC(+57)HTTNSQVRWEYC(+57)K): 2 | Spectra Observed (sites 474/493, MG-DH, MG-HI, RATTVTGTPCQDWAAQEPHRHSIFTPETNPR): 1 | Spectra Observed (sites 474/493, MG-HI, RATTVTGTPC(+57)QDWAAQEPHRHSIFTPETNPR): 1 | Spectra Observed (sites 489/504, MG-HI, MG-DH, ATTVTGTPC(+57)QDWAAQEPHRHSIFTPETNPRAGLEK): 1 | Spectra Observed (sites 779/789, MG-DH, VSRFVTWIEGVM(+16)RNN): 1 | Spectra Observed (sites 779/789, MG-HI, MG-DH, VSRFVTWIEGVM(+16)RNN): 3 | Spectra Observed (sites 779/789, MG-HI, VSRFVTWIEGVM(+16)RNN): 3

From patent US20190137505A1 (THE ARIZONA BOARD OF REGENTS ON BEHALF OF THE UNIVERSITY OF …, priority 2015, published 2019)
